According to BindingDB's records for doi:10.1021/jm0305523 (Merck Research Laboratories, 2004):

Biological target: T1, Caspase-3 (Homo sapiens, UniProt P42574)
T1 sequence (P42574 whole entry): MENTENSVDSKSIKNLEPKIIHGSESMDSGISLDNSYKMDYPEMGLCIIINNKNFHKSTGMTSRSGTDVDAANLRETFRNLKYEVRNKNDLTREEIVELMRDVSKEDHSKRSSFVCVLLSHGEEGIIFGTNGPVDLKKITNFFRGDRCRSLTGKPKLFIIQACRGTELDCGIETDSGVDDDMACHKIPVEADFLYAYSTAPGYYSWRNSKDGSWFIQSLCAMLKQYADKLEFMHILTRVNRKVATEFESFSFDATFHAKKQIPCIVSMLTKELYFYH
Assay: Caspase Inhibition Assay
Details: pH 7; 37 °C

IC50: 3 nM
SMILES: CC(=O)N[C@@H](CC(=O)O)C(=O)N[C@H]1CCc2cccc3c2N(C1=O)[C@H](C(=O)N[C@@H](CC(=O)O)C(=O)CSCc1ccccc1)C3 [(3S)-5-(benzylsulfanyl)-3-{[(2S,11S)-11-[(3S)-3-acetamido-3-formamidopropanoic acid]-12-oxo-1-azatricyclo[6.4.1.0^{4,13}]trideca-4(13),5,7-trien-2-yl]formamido}-4-oxopentanoic acid]
